These results are taken from ChEMBL document CHEMBL2169784, “Discovery and development of spleen tyrosine kinase (SYK) inhibitors” (J Med Chem, 2012).

Series [1] can be described thus: Cmax in rat at 10 mg/kg, po after 2 hrs administered as single dose. It is filed as ADME, organism-based. Also on record: dose 10 mg/kg, route oral. The conditions noted are these: in vivo.
Series [2] can be described thus: Half life in rat at 10 mg/kg, po administered as single dose. The series is classed as ADME, organism-based. Further details: dose 10 mg/kg, route oral. To be noted: in vivo.

With `COc1ccc(-c2cc3nccn3c(Nc3ncccc3C(N)=O)n2)cc1OC`, the concentration in series [1] peaked (Cmax) at 167 ng/mL. For the same compound, the half-life (as a rule, how long it takes for the measured level to halve) in series [2] was 1.78 h.
